In ChEMBL document CHEMBL1201862, “PubChem BioAssay data set” (2004):
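96-well plates; 48 h exposure; 5 concentrations. Endpoints by linear interpolation between flanking doses. Not reached: highest tested concentration assigned. Abbreviation: GI50, concentration required for 50% inhibition of growth.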 Activity calls are given as the source filed them. No stated cut-off is given here; in the data, active = GI50 up to about 1.1 µM and inactive = higher.

What was measured:
Experiment in all cases: DTP human tumour cell line panel, 48 h
[1] = tested on: A549
[2] = tested on: DLD-1
[3] = tested on: EKVX
[4] = tested on: HCC 2998
[5] = tested on: HL-60
[6] = tested on: NCI-H522
[7] = tested on: OVCAR-5
[8] = tested on: RPMI-8226
[9] = tested on: SF-295
[10] = tested on: SF-539
[11] = tested on: SK-OV-3
[12] = tested on: SNB-75
[13] = tested on: TK-10
[14] = tested on: U-251
[15] = tested on: UO-31
[16] = tested on: DU-145
[17] = tested on: Hs-578T
[18] = tested on: MCF7
[19] = tested on: PC-3
[20] = tested on: T47D

Measured: GI50

O=C(Nc1ccc(Cl)cc1Cl)C(=O)C(C(=O)c1ccncc1)C1OC(=O)c2ccccc21 (configuration not stated)
inactive: [1] > 100 µM | [2] > 100 µM | [3] > 100 µM | [4] > 100 µM | [5] > 100 µM | [6] > 100 µM | [7] > 100 µM | [8] > 100 µM | [9] > 100 µM | [10] > 100 µM | [11] > 100 µM | [12] > 100 µM | [13] > 100 µM | [14] > 100 µM | [15] > 100 µM

CCCN(CCC)CCc1cc(C(C)=O)n(S(=O)(=O)c2ccc(C)cc2)c1
inactive: [1] > 100 µM | [2] > 100 µM | [3] > 100 µM | [4] > 100 µM | [6] > 100 µM | [7] > 100 µM | [8] > 100 µM | [9] > 100 µM | [10] > 100 µM | [11] > 100 µM | [12] > 100 µM | [13] > 100 µM | [14] > 100 µM | [15] 83.2 µM

N#C/C(=C/Sc1ccccc1)C(=O)O
inactive: [1] 17.4 µM | [2] 36 µM | [3] 40.7 µM | [5] 34.4 µM | [6] 10.9 µM | [7] 29.6 µM | [8] 24.5 µM | [9] 37.3 µM | [10] 18.2 µM | [11] 59.4 µM | [12] 19.2 µM | [13] 38.7 µM | [14] 13.5 µM | [15] 12.6 µM

N#CC(N)(C(=O)CCC(=O)Nc1cccc(Cl)c1)c1ccc(Cl)cc1 (configuration not stated)
inactive: [1] > 100 µM | [2] > 100 µM | [3] > 100 µM | [5] > 100 µM | [6] > 100 µM | [8] > 100 µM | [9] > 100 µM | [10] > 100 µM | [11] > 100 µM | [12] > 100 µM | [13] > 100 µM | [14] > 100 µM | [15] > 100 µM

O=S1(=O)NN=C(NCc2ccc(Cl)c(Cl)c2)c2ccccc21
inactive: [1] > 100 µM | [2] 56.9 µM | [3] > 100 µM | [4] > 100 µM | [5] 26.5 µM | [7] > 100 µM | [8] 11.5 µM | [9] > 100 µM | [10] > 100 µM | [14] 30.2 µM | [15] > 100 µM

CC(C)(C)c1cc2ccc(C(N)=O)cc2c(=O)[nH]1
inactive: [1] > 100 µM | [2] > 100 µM | [3] 82.4 µM | [4] > 100 µM | [5] 79.8 µM | [6] > 100 µM | [7] > 100 µM | [9] > 100 µM | [10] 46.8 µM | [11] > 100 µM | [12] 27.2 µM | [13] > 100 µM | [14] 51.3 µM | [15] 63.8 µM

CC1=NN(c2ccccc2)C(=O)C1=C1SCCCS1
inactive: [1] 25.4 µM | [2] 21.5 µM | [3] 30.1 µM | [4] 37 µM | [5] 19.5 µM | [6] 18.1 µM | [7] 54 µM | [8] 19.7 µM | [9] 27.2 µM | [11] 46.3 µM | [12] > 100 µM | [13] 23.8 µM | [14] 18.1 µM | [15] 34.2 µM

O=C1C(Cl)C(c2ccc([N+](=O)[O-])cc2)N1n1cnc2ccccc2c1=O (configuration not stated)
inactive: [1] 30.7 µM | [2] 53.1 µM | [3] 12.7 µM | [4] 73.6 µM | [6] 49.8 µM | [7] > 100 µM | [8] > 10 µM | [9] 17.6 µM | [11] 9.75 µM | [12] 13.9 µM | [13] 25.3 µM | [14] 47.8 µM | [15] 71 µM

O=c1c2cccc3cccc(c4n1CCN=4)c32
inactive: [1] > 100 µM | [2] 52.5 µM | [3] > 100 µM | [5] 56.8 µM | [6] 84.3 µM | [7] > 100 µM | [8] > 100 µM | [9] > 100 µM | [10] > 100 µM | [11] 41 µM | [12] 76.9 µM | [13] 17.5 µM | [14] > 100 µM | [15] 41 µM

COC(=O)/C(Cl)=C1/CC1COCc1ccccc1 (configuration not stated)
inactive: [1] 54.7 µM | [2] 20.4 µM | [3] > 10 µM | [4] > 10 µM | [5] 13.6 µM | [6] 20.3 µM | [7] 74.3 µM | [8] 19.5 µM | [9] 53.5 µM | [10] 23.8 µM | [11] > 100 µM | [12] 47.8 µM | [13] 30.8 µM | [15] 28.8 µM

CC(=O)Nc1ccc(C2CC(c3ccc([N+](=O)[O-])cc3)=Nc3ccccc3[S+]2[O-])cc1 (configuration not stated)
inactive: [1] 38.4 µM | [2] 15.9 µM | [3] 36.5 µM | [4] 16.3 µM | [5] 17.6 µM | [6] 17.3 µM | [7] 50.6 µM | [8] 4.36 µM | [9] 28.8 µM | [10] 24.6 µM | [11] 27.4 µM | [12] 16.9 µM | [13] 28.8 µM | [15] 16.7 µM

CCC12CCCC(=O)N1C(CO)C(c1ccccc1)O2 (configuration not stated)
inactive: [1] > 100 µM | [2] > 100 µM | [3] > 100 µM | [7] > 100 µM | [8] > 100 µM | [9] > 100 µM | [10] > 100 µM | [12] > 100 µM | [13] > 100 µM | [14] > 100 µM

CC(=O)O[C@H]1CC[C@@]2(C)C(=CC[C@H]3[C@@H]4CC[C@H](c5cc(C(F)(F)F)n(C(C)=O)n5)[C@@]4(C)CC[C@@H]32)C1
inactive: [1] 6.11 µM | [16] 11.4 µM | [3] 7.28 µM | [4] 13.6 µM | [5] 3.5 µM | [17] 26.8 µM | [18] 5.87 µM | [6] 17.1 µM | [7] 9.4 µM | [19] 4.47 µM | [8] 2.8 µM | [9] 4.85 µM | [10] 6.47 µM | [11] 12.5 µM | [12] 8.22 µM | [20] 6.41 µM | [13] 5.22 µM | [14] 4.79 µM | [15] 1.67 µM

COc1ccc(CC2=NCCc3cc(OC)c(OC)cc32)cc1Br
inactive: [1] 21.6 µM | [2] 19.1 µM | [3] 40.6 µM | [4] 14.1 µM | [5] 3.1 µM | [6] 12 µM | [7] 1.99 µM | [9] 3.48 µM | [10] 24.7 µM | [11] 16.9 µM | [13] 50 µM | [14] 18.1 µM | [15] 16.8 µM
